Reference: PubChem BioAssay (NCI)
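Compound exposure: 48 hours, 5 concentrations, 96-well plates. TGI: concentration producing complete growth inhibition.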 Where a SMILES comes first, the peptide text is derived from it. [ ]: non-standard residue; d: D form. The star is where a group is joined. ξ: configuration not given here. ξF = NC(Cc1ccccc1)C(=O)O; Cbz = O=C(OCc1ccccc1)*; Aib = CC(C)(N)C(=O)O

Assays:
Experiment in all cases: inhibition of tumour cell growth, NCI panel, 48 h
CAKI-1 renal = system: CAKI-1 renal
HOP-92 NSCLC = system: HOP-92 NSCLC
HT29 colon = system: HT29 colon
M14 melanoma = system: M14 melanoma
MDA-MB-231 breast = system: MDA-MB-231 breast
OVCAR-5 ovarian = system: OVCAR-5 ovarian
RXF 393 renal = system: RXF 393 renal
SF-539 CNS = system: SF-539 CNS
SK-MEL-2 melanoma = system: SK-MEL-2 melanoma
SR leukemia = system: SR leukemia
T-47D breast = system: T-47D breast
SF-268 CNS = system: SF-268 CNS

Work on CC(=O)Nc1cccc(N2C(=O)/C(=C\c3cccc(Oc4ccccc4)c3)S(=O)(=O)C2c2ccccc2)c1 (stereo not given) yielded a TGI (CAKI-1 renal) of over 100 µM, a TGI (HOP-92 NSCLC) of over 100 µM and a TGI (HT29 colon) of over 100 µM. For the same compound, the TGI (M14 melanoma) was over 100 µM, the TGI (MDA-MB-231 breast) was over 100 µM and the TGI (OVCAR-5 ovarian) was over 100 µM. It also gave a TGI (RXF 393 renal) of over 100 µM, a TGI (SF-539 CNS) of over 100 µM and a TGI (SK-MEL-2 melanoma) of over 100 µM. The TGI (SR leukemia) was 58.3 µM and the TGI (T-47D breast) was over 100 µM.

In the case of CCOC(=O)Cn1c2ccc(Br)cc2c2nc3ccccc3nc21, the TGI (CAKI-1 renal) is reported as over 100 µM, the TGI (HOP-92 NSCLC) is reported as over 100 µM and the TGI (HT29 colon) is reported as over 100 µM. For the same compound, the TGI (M14 melanoma) was over 100 µM, the TGI (MDA-MB-231 breast) was over 100 µM and the TGI (OVCAR-5 ovarian) was over 100 µM. The TGI (RXF 393 renal) was over 100 µM, the TGI (SF-268 CNS) was over 100 µM and the TGI (SK-MEL-2 melanoma) was over 100 µM. For the same compound, the TGI (SR leukemia) was over 100 µM and the TGI (T-47D breast) was over 100 µM.

With COc1ccc(NC(C)=O)cc1N1C(=O)/C(=C\c2ccccc2)SC1c1cc(OC)c(OC)c(OC)c1 (stereo not given) the TGI (CAKI-1 renal) was over 100 µM, the TGI (HOP-92 NSCLC) was over 100 µM and the TGI (HT29 colon) was over 100 µM. It also gave a TGI (M14 melanoma) of over 100 µM, a TGI (MDA-MB-231 breast) of over 100 µM and a TGI (RXF 393 renal) of over 100 µM. It also gave a TGI (SF-268 CNS) of 43.9 µM, a TGI (SF-539 CNS) of 45.5 µM and a TGI (SK-MEL-2 melanoma) of over 100 µM. It also gave a TGI (SR leukemia) of over 100 µM and a TGI (T-47D breast) of over 100 µM.

CCOC(=O)CNC(=O)C(Cc1ccccc1)NC(=O)C(C)(C)NC(=O)OCc1ccccc1 (stereo not given) (Cbz-[Aib]-[ξF]-Gly-OEt) showed a TGI (CAKI-1 renal) of over 100 µM, a TGI (HOP-92 NSCLC) of over 100 µM and a TGI (HT29 colon) of over 100 µM. The TGI (M14 melanoma) was over 100 µM, the TGI (MDA-MB-231 breast) was over 100 µM and the TGI (OVCAR-5 ovarian) was over 100 µM. It also gave a TGI (SF-268 CNS) of over 100 µM, a TGI (SR leukemia) of over 100 µM and a TGI (T-47D breast) of over 100 µM.

Compound C[Si](C)(C)c1ccc(-c2c3ccc(-c4cc(Br)cc(Br)c4)nc3nc3nc(-c4cc(Br)cc(Br)c4)ccc23)cc1 has a TGI (CAKI-1 renal) of over 100 µM, a TGI (HOP-92 NSCLC) of over 100 µM and a TGI (M14 melanoma) of over 100 µM. For the same compound, the TGI (MDA-MB-231 breast) was over 100 µM, the TGI (OVCAR-5 ovarian) was over 100 µM and the TGI (SF-268 CNS) was over 100 µM. The TGI (SK-MEL-2 melanoma) was over 100 µM and the TGI (T-47D breast) was over 100 µM.

Work on CSc1nc(CO)c(CO)n1C yielded a TGI (CAKI-1 renal) of over 100 µM, a TGI (HOP-92 NSCLC) of over 100 µM and a TGI (HT29 colon) of over 100 µM. For the same compound, the TGI (OVCAR-5 ovarian) was over 100 µM, the TGI (RXF 393 renal) was over 100 µM and the TGI (SF-268 CNS) was over 100 µM. It also gave a TGI (SF-539 CNS) of over 100 µM and a TGI (SK-MEL-2 melanoma) of over 100 µM.

CC1(CO)COS(=O)OC1 (stereo not given) was tested, and the TGI (HOP-92 NSCLC) was over 100 µM, the TGI (HT29 colon) was over 100 µM and the TGI (MDA-MB-231 breast) was over 100 µM. It also gave a TGI (RXF 393 renal) of over 100 µM, a TGI (SF-268 CNS) of over 100 µM and a TGI (SR leukemia) of over 100 µM. It also gave a TGI (T-47D breast) of over 100 µM.

With Nc1ccc(O)c2c1C(=O)c1c(N)ccc(O)c1C2=O the TGI (CAKI-1 renal) was over 100 µM, the TGI (HOP-92 NSCLC) was over 100 µM and the TGI (M14 melanoma) was over 100 µM. It also gave a TGI (OVCAR-5 ovarian) of over 100 µM, a TGI (RXF 393 renal) of over 100 µM and a TGI (SF-268 CNS) of over 100 µM. It also gave a TGI (SF-539 CNS) of over 100 µM and a TGI (SK-MEL-2 melanoma) of over 100 µM.

O=C(NC(Cc1ccc(Br)cc1)C(=O)O)c1ccc(I)cc1 (stereo not given) gave a TGI (CAKI-1 renal) of over 100 µM, a TGI (HOP-92 NSCLC) of over 100 µM and a TGI (HT29 colon) of over 100 µM. It also gave a TGI (OVCAR-5 ovarian) of over 100 µM, a TGI (RXF 393 renal) of over 100 µM and a TGI (SF-268 CNS) of over 100 µM. The TGI (SF-539 CNS) was over 100 µM and the TGI (SK-MEL-2 melanoma) was over 100 µM.

For CC(C)(C)OC(=O)N1C(OP(=O)(Oc2ccccc2)Oc2ccccc2)=CSc2ccccc21, the TGI (CAKI-1 renal) was 92.3 µM, the TGI (HOP-92 NSCLC) was 80.9 µM and the TGI (HT29 colon) was over 100 µM. For the same compound, the TGI (M14 melanoma) was 68.6 µM, the TGI (MDA-MB-231 breast) was 77.6 µM and the TGI (OVCAR-5 ovarian) was over 100 µM. The TGI (RXF 393 renal) was over 100 µM, the TGI (SF-268 CNS) was over 100 µM and the TGI (SF-539 CNS) was over 100 µM. The TGI (SK-MEL-2 melanoma) was 43.7 µM, the TGI (SR leukemia) was over 100 µM and the TGI (T-47D breast) was over 100 µM.

For COc1cc(/C=N/c2nc3cc4sc(/N=C/c5cc(OC)c(OC)c(OC)c5)nc4cc3s2)cc(OC)c1OC, the TGI (CAKI-1 renal) was over 100 µM, the TGI (HOP-92 NSCLC) was over 100 µM and the TGI (HT29 colon) was over 100 µM. For the same compound, the TGI (M14 melanoma) was over 100 µM, the TGI (MDA-MB-231 breast) was over 100 µM and the TGI (OVCAR-5 ovarian) was over 100 µM. The TGI (RXF 393 renal) was over 100 µM, the TGI (SF-268 CNS) was over 100 µM and the TGI (SF-539 CNS) was 40.8 µM. It also gave a TGI (SK-MEL-2 melanoma) of over 100 µM, a TGI (SR leukemia) of over 100 µM and a TGI (T-47D breast) of over 100 µM.
